# Assay results: patent US20110118269A1, “FUSED PYRAZINE COMPOUNDS AS THEIR SALTS, USEFUL FOR THE TREATMENT OF DEGENERATIVE AND INFLAMMATORY DISEASES” (priority 2009, published 2011)
# What was measured:
# [1] = Tolerability of compounds in healthy mice (total body weight); assay type: in vivo, DBA/1J mice; settings: 100 mg/kg/d, po, up to two weeks
# Protocol: This protocol is designed to assess the tolerability of the compounds of the invention in healthy DBA/1J mice to determine the “therapeutic window” as defined by the dosing range between efficacious (mouse therapeutic Collagen-Induced Arthritis model) and toxic doses.
# DBA/1J […] mice are used (CERJ (France)), the mice are 10-11 weeks old, and have a body weight of approx 20g.
# Compounds are prepared for a dosing regimen of 100 mg/kg/d, po, free base, in a standard volume of injection of 0.1 mL/10 g of mice (equivalent to 10 mg/1 mL). For solution preparations, compounds are dissolved in 0.5% methyl-cellulose and 1% DMSO supplemented with 1 molar equivalent of methanesulfonic acid to ensure full dissolution, once a week.
# Groups are randomized based on body weight and treated for up to two weeks. Each group contained 5 mice and received either test compound at 100 mg/kg, a comparison compound at 100 mg/kg/d (Compound A) or vehicle on a daily basis in a dosing volume of 200 μL per mouse.
# Potential drug toxicity is monitored by observation every day and by recording body weights three times a week for weight loss. All statistical analyses are performed using Student's t test.
# To assess the general tolerability of the treatments, the total body weight is followed throughout the course of the study.
# [2] = Aqueous solubility determination (Example 4); assay type: physicochemical
# Protocol: Each salt is suspended in water and shaken for 24 h at 22° C. and 400 rpm. The resulting suspensions are filtered (0.2-μm filter). The obtained solids are analyzed by FT Raman. The pH of the filtrate is measured, and the concentration of the free base is determined by HPLC.
# [3] = test system: MMP13 expression in SW1353 cells; assay: IL-1/OSM driven MMP13 expression in SW1353 cells (MMP13 ELISA); assay type: cell-based; settings: Homo sapiens, IL-1β and OSM, 48 hr
# Protocol: A 384 well format ELISA for measurement of MMP13 was developed. Various primary antibodies are tested, as well as various ELISA protocols. The following protocol is developed and validated to measure MMP13 levels in supernatant of cell cultures in 384 well plates.
# Black maxisorb 384 well plates (Nunc 460518) are coated with 35 μL of a buffered solution containing 1.5 μg/mL anti-MMP13 antibody MAB511 (R&D systems). The antibody is diluted in carbonate-bicarbonate coating buffer (1.59 g Na2CO3 (Sigma S-7795) and 2.93 g NaHCO3 (Sigma S-5761) in 1 L MilliQ water, adjusted to pH 9.6). […] Substrate solution is prepared as follows: OmniMMP Fluorescent substrate (Biomol P-126) stock solution (2 mM in DMSO, stored at −20° C.) is diluted in 1× OmniMMP buffer (10× OmniMMP buffer: 500 mM Hepes (Sigma H4034), 100 mM CaCl2 (Sigma C5080), 0.5% Brij35 (Sigma 430 AG-6; adjusted to pH 7.0) to a final concentration of 0.01 mM. After an overnight incubation at 37° C., the active MMP13 in the sample has cleaved the substrate and released fluorescence. Readout is performed on the EnVision (Perkin Elmer) using 320 nm excitation/405 nm emission filters. […]
structure (smiles),measurement,setting,value
"CC(C)N1C[C@@H]2C[C@H]1CN2c1ccc(Nc2ncc(-c3coc(C(N)=O)c3)n3ncnc23)cc1 [Compound 1, 4-{8-[4-((1S,4S)-5-Isopropyl-2,5-diaza-bicyclo[2.2.1]hept-2-yl)-phenylamino]-[1,2,4]triazolo[1,5-a]pyrazin-5-yl}-furan-2-carboxamide]",weight of the animals compared to the vehicle,[1],no statistically significant difference
same,Filtrate pH,[2]; filtrate of the aqueous suspension after 24 h,6.9
same,solubility at 24 h,"[2]; thermodynamic from solid, water, shaken 24 h at 22° C., free base concentration by HPLC, read-out: Measured solubility",70 µg/mL
same,IC50,[3],50 to 500 nM
